# System: mouse pendrin gene
# Experiment: Quantitative PCR of the mouse pendrin gene in the lung of the OVA antigen-exposed bronchial hypersensitivity model
# Assay type: in vivo
# Conditions: lung 24 hours after third antigen inhalation
substance,measurement,value
"ovalbumin [OVA antigen, ovalbumin antigen used for sensitization and inhalation to induce bronchial hypersensitivity in mice]",mouse pendrin gene expression level in the lung versus physiological saline-inhaled mice (quantitative PCR),about 50 times

# From US20050208496A1, “Methods of testing for bronchial asthma or chronic obstructive pulmonary disease” (Genox Research, Inc., priority 2002, published 2005)
